Test results taken from ChEMBL document CHEMBL1201862, “PubChem BioAssay data set” (2004).
Calls of active or inactive are those of the source.

Assays:
[1] = microbe, parasite or virus in culture; type: functional; conditions: Mycobacterium tuberculosis
[2] = growth suppression of PTEN-null colon cells, dose response, cell-based, HCT116 PTEN knockout (AID 1047); type: functional;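 note: HCT116 colon tumor cells with PTEN knocked out; cells exposed to compound for 60 hours before readout; potency for loss of cell viability measured by luminescence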
[3] = growth suppression of beta-catenin-knockout colon cells, dose response, cell-based, HCT116, human colon tumor (AID 1045); type: functional;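 note: HCT116 colon tumor cells with beta catenin knocked out; cells exposed to compound for 60 hours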
[4] = target: T1, Short transient receptor potential channel 4 (Mus musculus, UniProt Q9QUQ5); assay: mouse TRPC4 channel inhibitors, dose response, cell-based, HEK293 TRPC4/mu-opioid, Fluo-4 calcium (AID 434942); type: functional;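 note: potency of inhibitors blocking the TRPC4 calcium response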
T1 sequence (Q9QUQ5 whole entry): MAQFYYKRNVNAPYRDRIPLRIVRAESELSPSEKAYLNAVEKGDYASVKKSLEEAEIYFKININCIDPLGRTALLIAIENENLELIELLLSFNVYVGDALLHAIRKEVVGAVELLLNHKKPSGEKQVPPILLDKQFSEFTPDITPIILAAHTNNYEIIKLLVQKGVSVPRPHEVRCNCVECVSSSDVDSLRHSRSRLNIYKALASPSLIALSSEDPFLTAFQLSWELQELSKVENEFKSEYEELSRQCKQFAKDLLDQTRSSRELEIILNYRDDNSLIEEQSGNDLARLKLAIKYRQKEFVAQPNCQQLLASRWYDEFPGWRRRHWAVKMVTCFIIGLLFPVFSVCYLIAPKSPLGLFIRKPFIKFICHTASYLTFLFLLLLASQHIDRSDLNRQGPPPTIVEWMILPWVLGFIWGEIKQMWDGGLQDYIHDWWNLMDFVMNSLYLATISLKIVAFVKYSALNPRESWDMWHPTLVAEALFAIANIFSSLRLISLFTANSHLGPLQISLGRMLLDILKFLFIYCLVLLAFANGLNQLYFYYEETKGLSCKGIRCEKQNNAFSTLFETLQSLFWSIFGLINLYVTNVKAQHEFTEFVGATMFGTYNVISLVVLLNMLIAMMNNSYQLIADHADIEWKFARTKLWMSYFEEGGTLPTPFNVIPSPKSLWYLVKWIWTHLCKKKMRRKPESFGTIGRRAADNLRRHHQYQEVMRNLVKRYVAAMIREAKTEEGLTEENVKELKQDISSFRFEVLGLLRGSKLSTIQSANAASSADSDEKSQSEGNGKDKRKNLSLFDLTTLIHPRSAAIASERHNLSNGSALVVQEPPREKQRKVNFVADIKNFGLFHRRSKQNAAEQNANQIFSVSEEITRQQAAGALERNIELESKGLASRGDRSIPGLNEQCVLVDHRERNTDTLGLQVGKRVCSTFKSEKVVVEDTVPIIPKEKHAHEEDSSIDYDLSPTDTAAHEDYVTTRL

[5] = target: Induced myeloid leukemia cell differentiation protein Mcl-1 (Homo sapiens, UniProt Q07820); type: functional
cells [6] = type: functional, cell-based
cells [7] = type: functional, cell-based; remark: listed apart in the source
Cytochrome P450 1A2 = target: T2, Cytochrome P450 1A2 (Homo sapiens, UniProt P05177);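 note: PubChem cytochrome P450 panel assay, CYP1A2 panel member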
T2 sequence (P05177 whole entry): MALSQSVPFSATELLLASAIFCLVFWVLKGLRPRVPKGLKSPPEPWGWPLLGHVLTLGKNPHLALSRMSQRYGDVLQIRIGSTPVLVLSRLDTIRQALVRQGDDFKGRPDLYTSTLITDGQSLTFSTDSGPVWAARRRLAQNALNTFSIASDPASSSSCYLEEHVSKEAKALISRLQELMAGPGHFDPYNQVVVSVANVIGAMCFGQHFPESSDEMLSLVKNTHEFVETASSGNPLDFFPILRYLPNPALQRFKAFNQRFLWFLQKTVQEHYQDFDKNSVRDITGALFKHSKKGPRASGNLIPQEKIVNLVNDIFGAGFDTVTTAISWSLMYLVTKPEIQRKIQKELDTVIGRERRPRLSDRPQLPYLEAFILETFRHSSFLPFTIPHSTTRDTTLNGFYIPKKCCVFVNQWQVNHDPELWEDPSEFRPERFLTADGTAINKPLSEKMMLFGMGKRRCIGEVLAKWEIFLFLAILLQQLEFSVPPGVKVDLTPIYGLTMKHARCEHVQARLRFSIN

[8] = target: T3, Carboxy-terminal domain RNA polymerase II polypeptide A small phosphatase 1 (Homo sapiens, UniProt Q9GZU7); assay: inhibitors of CTDSP1, concentration-response testing, biochemical assay, absorbance-based, actives from ultra-high-throughput screening (AID 540297); type: functional
T3 sequence (Q9GZU7 whole entry): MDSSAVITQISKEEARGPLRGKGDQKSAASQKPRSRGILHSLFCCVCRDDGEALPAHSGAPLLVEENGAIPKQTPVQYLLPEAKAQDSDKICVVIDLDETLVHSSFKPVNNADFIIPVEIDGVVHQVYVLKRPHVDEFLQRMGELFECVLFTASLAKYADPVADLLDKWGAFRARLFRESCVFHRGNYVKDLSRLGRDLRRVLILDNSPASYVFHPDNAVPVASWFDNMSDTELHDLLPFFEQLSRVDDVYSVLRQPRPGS

[9] = A549 cell cytotoxicity, dose response, cytotoxicity control, plate reader, cherry-pick, antagonist series (AID 743412); type: functional, cell-based
[10] = LGR2 antagonists, dose response, cell-based, HEK293, CRE-luciferase reporter, cherry pick, set 2 (AID 743343); type: functional;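 note: transfected cells were stimulated with diluted bursicon conditioned medium after compound addition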
[11] = MC4R antagonists, dose response, counter-screen for LGR2 antagonist project, cell-based, plate reader, cherry pick (AID 743444); type: functional;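 note: transfected HEK 293 cells stimulated with alpha-MSH peptide; potency of inhibitors of the alpha-MSH evoked signal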
[12] = Luminescence Cell-Based Dose Retest to Confirm Inhibitors of Cancer Stem Cells. [Related pubchem assays (depositor defined):AID2717, AID2721]; type: functional; conditions: Homo sapiens
[13] = NIH-3T3 fibroblast cytotoxicity, dose response, cytotoxicity control, cell-based, fluorescence, Alamar Blue, secondary assay (AID 2327); type: functional;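 note: NIH-3T3 mouse fibroblasts cultured with fluconazole at 8 µg/mL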
[14] = C. albicans growth with fluconazole, confirmation, fluorescence, retest (AID 2467); type: functional, cell-based
Cytochrome P450 2C9 = Cytochrome P450 2C9 (Homo sapiens, UniProt P11712)
Cytochrome P450 3A4 = Cytochrome P450 3A4 (Homo sapiens, UniProt P08684);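 note: CYP3A4 tested as one member of a cytochrome P450 panel screen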
[15] = inhibitors of firefly luciferase expression or activity, dose response, H4 neuroglioma cells, luminescence (AID 1990); type: functional, cell-based
[16] = Luminescence Cell-Based Dose Response HTS to Identify Inhibitors of 5'UTR Stem-Loop Driven Prion Protein mRNA Translation in H4 Neuroglioblastoma Cells. [Related pubchem assays: 1827 (Project Summary), 1813 (Primary HTS)]; type: functional
[17] = inhibitors of SNCA 5'UTR-driven reporter translation, confirmation, H4 neuroglioma cells, luminescence (AID 1988); type: functional, cell-based
[18] = inhibitors of intracellular T. cruzi replication, confirmation, NIH3T3 host cells, beta-gal luminescence (AID 2044); type: functional, cell-based;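 note: intracellular parasites grown in NIH/3T3 mouse fibroblasts as host cells; luminescent beta-galactosidase reporter signal from transgenic T. cruzi replicating inside host cells; inhibitors lower the luminescence signal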
[19] = cytotoxicity toward NIH3T3 fibroblasts, dose response, counter-screen, cell-based, ATP luminescence, mouse fibroblasts (AID 2010); type: functional;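 note: cells exposed to compound for about 90 hours before reading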
cells [20] = type: functional
H9c2 = assay: cells; type: functional, cell-based; conditions: Rattus norvegicus, H9c2, Myocardium;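 note: confirmatory concentration-response retest of ultra-high-throughput screening hits for modulation of myocardial damage; cell death induced by hydrogen peroxide oxidative stress; compound pretreatment for 60 min then peroxide exposure for 2 h; potency is for protecting the cells against peroxide damage rather than for killing them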
[21] = inhibitors of clade B AD8 Env fusion, dose response, cell-based, cherry-pick (AID 652062); type: functional;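 note: luciferase signal from cell-cell fusion driven by HIV-1 clade B AD8 Env; potency is for inhibitors of fusion seen as a drop in luminescence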
Cytochrome P450 2C19 = Cytochrome P450 2C19 (Homo sapiens, UniProt P33261); assay: Cytochrome panel assay with activity outcomes. Panel member name: p450-cyp2c19 Compounds with AC50 equal or less than 10 uM are considered active; type: functional; conditions: read-out: AC50
Chain of Cytochrome P450 2C19 (P33261 whole entry): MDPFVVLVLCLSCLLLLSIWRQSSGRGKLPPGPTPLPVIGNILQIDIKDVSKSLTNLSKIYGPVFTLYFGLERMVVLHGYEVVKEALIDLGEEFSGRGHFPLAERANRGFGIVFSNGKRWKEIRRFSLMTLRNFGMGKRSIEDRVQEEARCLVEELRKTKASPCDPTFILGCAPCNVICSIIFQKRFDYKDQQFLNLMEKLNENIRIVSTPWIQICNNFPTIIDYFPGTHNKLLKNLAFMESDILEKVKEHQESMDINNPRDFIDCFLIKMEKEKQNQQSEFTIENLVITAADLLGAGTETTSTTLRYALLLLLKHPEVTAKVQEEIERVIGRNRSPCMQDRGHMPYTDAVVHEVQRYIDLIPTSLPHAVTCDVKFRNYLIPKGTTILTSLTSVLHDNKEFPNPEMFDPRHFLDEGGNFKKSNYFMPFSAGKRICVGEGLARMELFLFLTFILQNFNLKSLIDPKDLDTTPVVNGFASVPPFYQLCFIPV

Chain of Induced myeloid leukemia cell differentiation protein Mcl-1 (Q07820 whole entry): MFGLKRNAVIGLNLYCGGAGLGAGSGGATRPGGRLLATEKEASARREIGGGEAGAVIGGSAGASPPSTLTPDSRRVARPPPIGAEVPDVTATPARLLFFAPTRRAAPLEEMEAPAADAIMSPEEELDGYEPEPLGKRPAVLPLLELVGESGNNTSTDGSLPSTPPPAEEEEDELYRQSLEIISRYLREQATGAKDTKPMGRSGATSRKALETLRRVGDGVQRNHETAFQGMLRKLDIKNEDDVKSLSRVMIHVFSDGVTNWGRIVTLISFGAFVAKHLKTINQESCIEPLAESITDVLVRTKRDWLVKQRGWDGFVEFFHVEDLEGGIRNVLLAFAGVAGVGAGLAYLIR
Chain of Cytochrome P450 2C9 (P11712 whole entry): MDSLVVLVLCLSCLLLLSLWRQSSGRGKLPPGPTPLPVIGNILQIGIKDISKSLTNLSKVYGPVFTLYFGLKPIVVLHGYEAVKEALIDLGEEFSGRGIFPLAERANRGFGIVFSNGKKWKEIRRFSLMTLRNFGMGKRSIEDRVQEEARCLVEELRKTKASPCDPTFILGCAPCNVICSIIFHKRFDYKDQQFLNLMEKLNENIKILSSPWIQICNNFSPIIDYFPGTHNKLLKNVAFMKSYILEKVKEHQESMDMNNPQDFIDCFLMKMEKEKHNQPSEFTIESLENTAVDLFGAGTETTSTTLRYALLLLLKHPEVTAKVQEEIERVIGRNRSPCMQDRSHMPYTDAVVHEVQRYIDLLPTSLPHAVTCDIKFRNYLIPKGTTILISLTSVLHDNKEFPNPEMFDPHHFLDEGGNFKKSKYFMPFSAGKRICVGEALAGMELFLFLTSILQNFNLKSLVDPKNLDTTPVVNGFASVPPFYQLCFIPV
Chain of Cytochrome P450 3A4 (P08684 whole entry): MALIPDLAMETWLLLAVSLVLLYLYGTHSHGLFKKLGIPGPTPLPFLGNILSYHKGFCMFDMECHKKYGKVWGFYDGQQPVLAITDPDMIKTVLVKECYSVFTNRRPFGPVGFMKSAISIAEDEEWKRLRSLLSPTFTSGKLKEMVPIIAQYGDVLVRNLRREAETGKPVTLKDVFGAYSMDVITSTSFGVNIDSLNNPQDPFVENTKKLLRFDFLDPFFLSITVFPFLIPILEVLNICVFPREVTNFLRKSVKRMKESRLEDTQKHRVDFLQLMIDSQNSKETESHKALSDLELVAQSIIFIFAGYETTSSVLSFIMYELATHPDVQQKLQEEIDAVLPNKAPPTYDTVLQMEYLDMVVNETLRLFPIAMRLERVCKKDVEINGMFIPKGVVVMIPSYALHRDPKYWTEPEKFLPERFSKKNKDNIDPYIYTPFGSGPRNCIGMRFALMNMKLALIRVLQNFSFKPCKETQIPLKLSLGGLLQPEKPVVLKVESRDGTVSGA

CCCCn1nc(C(=O)N[C@@H](CCSC)c2nc3ccccc3[nH]2)c2ccccc2c1=O
CC50 [1]: > 40 µM (active)

CC1CCN(Cc2c(O)ccc3c(O)c(-c4nc5ccccc5s4)c(=N)oc23)CC1
EC50 [2]: 16.6 µM (active) | EC50 [3]: 16.8 µM (active)

Cn1cc(NC(=O)CCl)cn1
CC50 [1]: > 40 µM (active)

CCOC(=O)C1(CCOC)CCN(C(C)CCc2ccc(OC)cc2)CC1 (configuration not stated)
EC50 [4]: 4.22 µM (active)

CC(=O)NC1=C(NC2CCS(=O)(=O)C2)C(=O)c2ccccc2C1=O (configuration not stated)
IC50 [5]: 2.54 µM (active)

CCCc1nc2ccccc2n1Cc1ccccc1OC
EC50 [4]: 6.68 µM (active)

CCN(C(=O)CSc1nc[nH]n1)C1CCCCC1
EC50 (cells [6]): > 350 µM (not active) | EC50 (cells [7]): > 350 µM (not active)

COc1ccc2c(c1)c(=O)oc1cc(OCC(=O)NC3CC3)ccc12
EC50 [2]: 14.1 µM (active) | EC50 [3]: 37.7 µM (active)

CC(=O)N1CCC2(CC1)CC(=O)c1cc(OCC(=O)N3CCN(C)CC3)ccc1O2
AC50 (Cytochrome P450 1A2): 39.8 µM (inconclusive)

O=C(COC(=O)c1ccc(S(=O)(=O)N2CCCCC2)cc1)NCc1ccco1
IC50 [8]: 10.5 µM (active)

COC(=O)C1CCN(C(=O)COC(=O)CNS(=O)(=O)c2ccc(SC)c([N+](=O)[O-])c2)CC1
IC50 [8]: 13.5 µM (active)

CN(C)c1cccc(C(=O)Nc2nc3ccccc3[nH]2)c1
AC50 [9]: > 52 µM (inactive) | AC50 [10]: 6.18 µM (active) | AC50 [11]: 5.96 µM (active)

COc1cc(NS(=O)(=O)c2ccc(N/C=C(\C#N)c3nc4cc(Cl)ccc4o3)cc2)nc(OC)n1
EC50 [2]: 12.7 µM (active) | EC50 [3]: 14.7 µM (active) | AC50 [12]: 2.08 µM (active)

O=C(C1CCC1)N1CCN(S(=O)(=O)c2ccc(Br)cc2Cl)CC1
CC50 [1]: > 40 µM (active)

CCc1c(C)nc2ccc(OC)cc2c1S
IC50 [5]: 0.628 µM (active)

O=C1CC(/C=C/c2ccc(Cl)cc2)=Nc2ccccc2N1
CC50 [1]: 23.8 µM (active)

CCOc1ccc2nc(N=C(S)N(C)C)sc2c1
EC50 [13]: > 150 µM (inactive) | EC50 [14]: 2.33 µM (active)

Cc1ccc(N(C(=O)c2snc(C(N)=O)c2N)C(C(=O)NCC2CCCO2)c2ccc(C)o2)c(C)c1 (configuration not stated)
EC50 [4]: 1.68 µM (active)

CC1=C(C(N)=O)C(c2ccccn2)n2nc(SCc3ccccc3Cl)nc2N1 (configuration not stated)
AC50 (Cytochrome P450 1A2): 15.8 µM (inconclusive) | AC50 (Cytochrome P450 2C9): 20 µM (inconclusive)

COc1ccc(CNC(=O)/C=C\c2ccc3[nH]cc(CCN(C)C)c3c2)cc1
AC50 (Cytochrome P450 1A2): 39.8 µM (inconclusive)

O=C1NC(=O)N(CCC2=CCCCC2)C(=O)/C1=C(O)/C=C/c1ccc2c(c1)OCO2
EC50 [2]: 17.1 µM (active) | EC50 [3]: 15 µM (active) | AC50 [12]: 1.37 µM (active)

CC(C)Cc1nc(N2CCN(C(=O)c3ccccc3)CC2)c(C#N)c2c1CCC2
AC50 (Cytochrome P450 1A2): 25.1 µM (inconclusive)

Cc1cc(Cl)nc(NC(=O)CSc2ccc(Cl)cc2)n1
AC50 (Cytochrome P450 1A2): 5.01 µM (inconclusive)

N#C/C(=C\c1ccc[nH]1)C(=O)Nc1ccccc1[N+](=O)[O-]
IC50 [8]: 7.3 µM (active)

COc1ccc(C(=O)N2CCC[C@@]3(CCN(C(=O)NC(C)C)C3)C2)cc1
AC50 (Cytochrome P450 1A2): 12.6 µM (inconclusive) | AC50 (Cytochrome P450 3A4): 20 µM (inconclusive)

COc1cnn(-c2ccc(Br)cc2)c(=O)c1SCc1ccccc1
IC50 [5]: 3.25 µM (not active)

O=C(NC1CCCCC1)C(c1cccs1)N(CCCN1CCOCC1)C(=O)c1ccc(-c2ccccc2)[nH]1 (configuration not stated)
CC50 [1]: > 40 µM (active)

C=CCOc1nc(-c2ccccc2Cl)nc2ccccc12
EC50 [15]: 69.1 µM (active) | EC50 (cells [6]): > 350 µM (not active) | EC50 [16]: > 120 µM (not active) | EC50 [17]: 17.4 µM (active) | EC50 (cells [7]): > 350 µM (not active)

CC(C)OC(=O)CCCCCN1C(=O)CSC1=S
EC50 [18]: 4.77 µM (active) | CC50 [1]: 31.3 µM (active) | EC50 [19]: 8.46 µM (active) | IC50 (cells [20]): 6.29 µM (active)

O=[N+]([O-])c1cccc(N(CC(O)CN2CCCC2)S(=O)(=O)c2ccccc2)c1 (configuration not stated)
EC50 [4]: 10.6 µM (active)

O=C(NCc1ccco1)C1Cc2ccccc2CN1S(=O)(=O)c1ccccc1F (configuration not stated)
IC50 [8]: 5.41 µM (active)

CNC(=O)c1ccc(-c2sc3nc(N4CCOCC4)c4c(c3c2N)CCCC4)o1
EC50 [2]: 23.5 µM (active) | EC50 [3]: 24.6 µM (active) | IC50 (H9c2): 14.2 µM (active)

CCOc1ccc(C(C)=O)cc1N1C(=O)C2C3C=CC(C3)C2C1=O (configuration not stated)
IC50 [8]: 15.8 µM (active)

CCc1cnc(N2[C@H](C#N)[C@H](c3ccc(C#Cc4ccccc4F)cc3)[C@H]2CO)s1
AC50 [21]: 33.6 µM (active)

COc1cc2c(cc1OC)C(c1ccc(N)cc1)=NNC(=O)C2
AC50 (Cytochrome P450 2C19): 15.8 µM (inconclusive) | AC50 (Cytochrome P450 1A2): 39.8 µM (inconclusive) | AC50 (Cytochrome P450 2C9): 39.8 µM (inconclusive)

Cc1cccc(OCC(=O)NCC(=O)N/N=C/c2cccnc2)c1
EC50 (cells [6]): > 350 µM (not active) | EC50 (cells [7]): > 350 µM (not active)

CCOC(=O)c1cc(C(O)(C(=O)OC)C(F)(F)F)c(/N=C/N(C)C)o1 (configuration not stated)
IC50 [5]: < 0.4 µM (not active)

Cc1ccc(/C=C/C(=O)c2ccc(O)cc2)cc1
EC50 [4]: 3.35 µM (active)
